This note sets out measurements from patent US12558345B2, “CHK1/2 inhibitors for use in the treatment of neuroblastomas and/or soft tissue sarcomas” (Eli Lilly and Company, priority 2015, dated 2026).

Holding throughout (assay type): in vivo, mouse
Experiment [1] deals with ST240 LMS patient-derived xenograft. Nature of the experiment: Xenograft Tumor Model ST240. Particulars: comparator day 29, p-value 0.022. Here is the method: (§1) For all “ST” models (encompassing RMS and LMS), patient-derived xenografts are established from viable human tumor tissue and are serially passaged in animals a limited number of times to maintain tumor heterogeneity. In subcutaneous models, athymic nude mice (Crl:NU(NCr)-Foxn1nu) or CB-17 SCID mice (CRL-CB17/Icr-Prkdcscid/IcrIcoCrl) are injected or implanted unilaterally into the flank with tumor fragments harvested from host animals, each implanted from a specific passage lot. For all studies, measure tumor growth and body weight twice per week beginning on the seventh day after implantation. When tumor size reaches 150-300 mm^3, randomize animals and group into groups of 4-7 animals. Prepare test compound in an appropriate vehicle (e.g. vehicle can be 20% Captisol® in sterile water) and administer subcutaneously for three consecutive days followed by a four day dosing holiday and repeat for a minimum of four weeks. Tumor response is determined by tumor volume measurement performed twice per week during the course of treatment.

In experiment [2] the test system is KELLY human NBM cancer cell xenograft. Nature of the experiment: Xenograft Tumor Model KELLY. Particulars: comparator day 49, p-value <0.001. The procedure:
(§2) The following protocol can be used to measure reductions in tumor volume in response to an active pharmaceutical ingredient. Expand human NBM cancer cells SH-SY5Y (ATCC, #CRL-2226) in culture, harvest, and inject 5×10^6 cells in 200 μL of 1:1 solution of HBSS and Matrigel® subcutaneously into the right rear flank of female CD-1 nu/nu mice (20-24 g, Charles River Laboratories). Expand human NBM cancer cells KELLY (Sigma-#92110411) in culture, harvest, and inject 5×10^6 cells in 200 μL of 1:1 solution of HBSS and Matrigel® subcutaneously into the right rear flank of female CB-17 SCID mice (20-24 g, Charles River Laboratories). Expand human NBM cancer cells IMR-32 (ATCC, #CCL-127) in culture, harvest, and inject 5×10^6 cells in 200 μL of 1:1 solution of HBSS and Matrigel® subcutaneously into the right rear flank of female CB-17 SCID mice (20-24 g, Charles River Laboratories).
(§3) For all “ST” models (encompassing RMS and LMS), patient-derived xenografts are established from viable human tumor tissue and are serially passaged in animals a limited number of times to maintain tumor heterogeneity. […] Tumor response is determined by tumor volume measurement performed twice per week during the course of treatment.

The test system of experiment [3] is ST658 LMS patient-derived xenograft. Nature of the experiment: Xenograft Tumor Model ST658. Particulars: comparator day 16, p-value 0.592. The procedure:
as §1

Experiment [4] relates to Leiomyosarcoma xenograft models. Nature of the experiment: Sarcoma xenograft models by tumor subtype: Leiomyosarcoma.
Source text: (§4) For all “CTG” models (encompassing human RMS, DSRCT, EWS, OS and LMS patient-derived xenograft models), female NCr nude spontaneous mutant mice (5-8 weeks old, Taconic) are implanted unilaterally in the flank region with tumor fragments harvested from donor animals, each implanted from a specific passage lot.
as §1

Experiment [5] deals with IMR-32 human NBM cancer cell xenograft. Nature of the experiment: Xenograft Tumor Model IMR-32. As to conditions: IMR-32, NBM, comparator day 66, p-value <0.001. The procedure: as §2, §3
The subject of experiment [6] is Alveoloar Rhabdomyosarcoma xenograft models. Nature of the experiment: Sarcoma xenograft models by tumor subtype: Alveolar Rhabdomyosarcoma. Particulars: age of patients 17-24 years. Here is the method:
(§5) The efficacy of 5-(5-(2-(3-aminopropoxy)-6-methoxyphenyl)-1H-pyrazol-3-ylamino)pyrazine-2-carbonitrile methanesulfonic acid monohydrate is measurable in vivo in mouse models of neuroblastomas and human pediatric and adult sarcomas. 5-(5-(2-(3-Aminopropoxy)-6-methoxyphenyl)-1H-pyrazol-3-ylamino)pyrazine-2-carbonitrile methanesulfonic acid monohydrate (10 mg/kg) can be administered subcutaneously to nude mice bearing either cell-derived xenografts (CDX) or patient-derived xenografts (PDX) of human rhabdomyosarcoma, desmoplastic small round cell tumor (DSRCT), osteosarcoma, and Ewing's sarcoma using a 3 day on, 4 day off b.i.d. dosing schedule. Tumor volume and body weight can be measured two times per week. Tumor-specific parameters can be evaluated by immumohistochemistry.
(§6) Expand human RMS cancer cells SJCRH-30 (St. Jude Children's Research Hospital) in culture, harvest, and inject 5×10^6 cells in 200 μL of HBSS subcutaneously into the right rear flank of female athymic nude mice (20-22 g, Harlan Laboratories). […]
as §3

The subject of experiment [7] is Osteosarcoma xenograft models. Nature of the experiment: Sarcoma xenograft models by tumor subtype: Osteosarcoma. As to conditions: age of patients 11-19 years. The procedure: as §5, with “immumohistochemistry. […]” for “immumohistochemistry.”
as §3

The test system of experiment [8] is ST550 LMS patient-derived xenograft. Nature of the experiment: Xenograft Tumor Model ST550. As to conditions: comparator day 31, p-value 0.712. The procedure: as §1
Experiment [9] has as its system Embryonal Rhabdomyosarcoma xenograft models. Nature of the experiment: Sarcoma xenograft models by tumor subtype: Embryonal Rhabdomyosarcoma. Particulars: age of patients 2-7 years. Here is the method:
as §5, §6, §3

In experiment [10] the test system is CTG-1006 LMS patient-derived xenograft. Nature of the experiment: Xenograft Tumor Model CTG-1006. Particulars: comparator day 27, p-value <0.001.
Source text: as §4, §1

Experiment [11] relates to ST162 patient-derived xenograft. Nature of the experiment: Xenograft Tumor Model ST162. As to conditions: ST162, LMS, comparator day 39, p-value <0.001. Here is the method: as §1
The test system of experiment [12] is Calu-6 lung tumor xenograft. Nature of the experiment: Human Tumor Xenograft Models, with gemcitabine: Calu-6. Here is the method:
The ability of CHK1 inhibitors to effect tumor killing can be determined in vivo using the Calu-6 lung and HT-29 colon tumor xenograft efficacy models. Calu-6 lung cancer cells (ATCC) are cultured in growth media (MEM w/ Earle's salts (Invitrogen) with L-glutamine (Gibco™) supplemented with 10% (v/v) heat inactivated FBS (Gibco™), 1×MEM non-essential amino acids (Gibco™), 1×sodium pyruvate (Gibco™)) and HT-29 colon cancer cells (ATCC) are cultured in growth media, (McCoy's 5A medium (Gibco™) supplemented with 10% FBS (Gibco™)) and expanded. Cells are harvested and washed twice with phosphate buffered saline and 5×10^6 cells (HT-29) or 1×10^6 cells (Calu-6) in growth media (without serum) are mixed with equal volume of BD Matrigel™ matrix (BD Bioscience, Franklin, NJ), then injected subcutaneously into the flank of nude mice (CD-1 nu/nu, from Charles River Labs, Wilmington, MA). At about day 16 after implant (150-200 mm^3), gemcitabine is formulated fresh in saline daily and administered to animals by intraperitoneal route at 60 mg/kg dose. […] Tumor response is determined by tumor volume measurement performed twice a week during the course of treatment. Tumor growth inhibition (TGI) is calculated as the percent reduction in mean tumor size of a compound treated group from the mean tumor size of the vehicle-treated control group.

[13] abbreviates: Leiomyosarcoma, age of patients 48-64 years.

Each structure is given as a SMILES string. Counter-ions that a name gives are not always drawn.

Regarding `COc1cccc(OCCCN)c1-c1cc(Nc2cnc(C#N)cn2)n[nH]1` [Example 5, 5-(5-(2-(3-Aminopropoxy)-6-methoxyphenyl)-1H-pyrazol-3-ylamino)pyrazine-2-carbonitrile methanesulfonic acid monohydrate], the “% T/C” value in experiment [1] is reported as 67%; in experiment [3], 137%; in [8], 94%. The “% Regression” value in experiment [2] was −88%; in [5], −72%; in experiment [10] it was −24%; in experiment [11], −93%. Moreover, the “Result of Treatment: Partial Response (models)” value in experiment [4] (setting [13]) is given as 1/5 Partial. For the same compound, the “Result of Treatment: Stable Disease (models)” value in experiment [4] (setting [13]) was “Response; 1/5”; in [7], 1/4 Stable Disease; in [9], “Response; 1/3”. Also, the “activity in PDX models” value in experiment [4] (PDX models of leiomyosarcoma) is on record as “active”. The “Result of Treatment: Complete Response (models)” value in [6] is on record as 2/2 Complete; in experiment [9], 1/3 Complete.
For `COc1cccc(OCCCN)c1-c1cc(Nc2cnc(C#N)cn2)n[nH]1` [Example 2, 5-(5-(2-(3-Aminopropoxy)-6-methoxyphenyl)-1H-pyrazol-3-ylamino)pyrazine-2-carbonitrile dihydrogen chloride salt], the “increase in tumor growth inhibition over gemcitabine alone” value in [12] (Calu-6, combination with gemcitabine) is “up to a six-fold increase”. Moreover, in experiment [12] (Calu-6, dosed alone and in combination with gemcitabine 60 mg/kg ip, compound iv +24 hours, Q3Dx4), the anti-tumor activity entry is recorded as “excellent dose dependent anti-tumor activity”.
